According to US20260327214A1, “1,3,4-OXADIAZOLE DERIVATIVE COMPOUNDS AS HISTONE DEACETYLASE 6 INHIBITOR, AND USES THEREOF” (CHONG KUN DANG PHARMACEUTICAL CORP., priority 2022, published 2026):

Key:
[1] = biological target: T1, human recombinant HDAC1 (Homo sapiens, UniProt Q13547); assay: HDAC1 enzyme activity inhibition test (HDAC Fluorometric Drug Discovery Kit); format: biochemical; details: 30° C., 60 minutes, 10 μM substrate
T1 construct: purchased Enzo Life Science BML-SE456
How it was run: (§1)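 Recombinant human HDAC1 or HDAC6 (0.3 μg) reacted with 10 μM Fluor de Lys SIRT1 substrate and 5-fold diluted compound for 60 min at 30 °C. Developer II added 30 min; fluorescence read at Ex 360/Em 460 and IC50 calculated.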

[2] = biological target: T2, human recombinant HDAC6 (Homo sapiens, UniProt Q9UBN7); assay: HDAC6 enzyme activity inhibition test (HDAC Fluorometric Drug Discovery Kit); format: biochemical; details: for HDAC6 selectivity (fold): HDAC6 over HDAC1; for IC50: human recombinant HDAC6, same protocol as HDAC1
T2 construct: purchased Calbiochem 382180
T2 sequence (Q9UBN7 1-1215): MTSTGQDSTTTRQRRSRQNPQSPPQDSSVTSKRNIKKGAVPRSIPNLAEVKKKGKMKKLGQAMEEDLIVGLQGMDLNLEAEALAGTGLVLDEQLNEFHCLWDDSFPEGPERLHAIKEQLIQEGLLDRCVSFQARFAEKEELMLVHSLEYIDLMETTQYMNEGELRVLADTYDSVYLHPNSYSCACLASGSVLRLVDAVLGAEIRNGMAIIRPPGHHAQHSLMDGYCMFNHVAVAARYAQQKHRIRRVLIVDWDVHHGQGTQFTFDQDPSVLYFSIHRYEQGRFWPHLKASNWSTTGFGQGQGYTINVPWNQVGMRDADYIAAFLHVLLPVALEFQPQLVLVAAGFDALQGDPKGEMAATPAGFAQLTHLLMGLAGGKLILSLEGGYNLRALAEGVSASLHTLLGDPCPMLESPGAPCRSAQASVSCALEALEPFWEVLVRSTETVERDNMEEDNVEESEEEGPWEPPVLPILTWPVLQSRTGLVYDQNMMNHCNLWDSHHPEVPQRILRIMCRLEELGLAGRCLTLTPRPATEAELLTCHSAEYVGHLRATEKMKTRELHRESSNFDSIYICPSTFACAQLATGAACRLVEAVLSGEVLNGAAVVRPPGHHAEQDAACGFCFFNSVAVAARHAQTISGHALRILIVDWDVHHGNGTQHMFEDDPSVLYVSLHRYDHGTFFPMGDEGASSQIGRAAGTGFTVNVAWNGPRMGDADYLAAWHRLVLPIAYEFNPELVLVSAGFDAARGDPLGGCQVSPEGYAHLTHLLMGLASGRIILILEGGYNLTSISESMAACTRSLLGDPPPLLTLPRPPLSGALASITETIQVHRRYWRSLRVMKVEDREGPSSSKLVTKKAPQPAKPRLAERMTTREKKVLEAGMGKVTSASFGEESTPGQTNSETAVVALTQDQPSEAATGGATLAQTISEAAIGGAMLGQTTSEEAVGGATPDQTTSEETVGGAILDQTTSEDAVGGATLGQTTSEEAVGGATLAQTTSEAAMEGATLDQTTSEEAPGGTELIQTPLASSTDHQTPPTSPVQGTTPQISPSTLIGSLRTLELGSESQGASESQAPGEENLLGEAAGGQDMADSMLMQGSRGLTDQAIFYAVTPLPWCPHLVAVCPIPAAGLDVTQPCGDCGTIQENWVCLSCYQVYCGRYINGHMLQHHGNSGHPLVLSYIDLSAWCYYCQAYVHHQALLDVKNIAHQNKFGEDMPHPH
How it was run: as §1

T1 sequence (Q13547 whole entry): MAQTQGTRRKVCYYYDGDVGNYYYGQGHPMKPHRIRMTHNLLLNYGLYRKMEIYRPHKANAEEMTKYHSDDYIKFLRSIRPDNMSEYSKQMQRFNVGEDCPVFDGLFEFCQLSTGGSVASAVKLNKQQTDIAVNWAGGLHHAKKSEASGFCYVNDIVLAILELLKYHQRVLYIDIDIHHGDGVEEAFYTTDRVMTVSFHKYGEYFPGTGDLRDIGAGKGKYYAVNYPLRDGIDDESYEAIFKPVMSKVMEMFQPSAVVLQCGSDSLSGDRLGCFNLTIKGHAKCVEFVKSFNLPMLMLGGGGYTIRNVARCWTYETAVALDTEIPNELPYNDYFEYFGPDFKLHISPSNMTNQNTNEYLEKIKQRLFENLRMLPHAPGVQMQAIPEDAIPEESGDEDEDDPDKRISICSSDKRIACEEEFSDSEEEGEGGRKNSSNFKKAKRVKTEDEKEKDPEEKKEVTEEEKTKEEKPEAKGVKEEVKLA

Structure (SMILES) | IC50 [1] [nM] | HDAC6 selectivity (fold) [2] [fold] | IC50 [2] [nM]
CN(C)Cc1ccc(-c2nn(Cc3ccc(-c4nnc(C(F)F)o4)cn3)c(=S)o2)s1 [Compound 121, 3-[[5-[5-(difluoromethyl)-1,3,4-oxadiazol-2-yl]-2-pyridyl]methyl]-5-[5-[(dimethylamino)methyl]-2-thienyl]-1,3,4-oxadiazol-2-thione] | > 50000 | 639 | 78.2
CCN(CC)Cc1ccc(-c2nn(Cc3ccc(-c4nnc(C(F)F)o4)cn3)c(=S)o2)s1 [Compound 122, 5-[5-(diethylaminomethyl)-2-thienyl]-3-[[5-[5-(difluoromethyl)-1,3,4-oxadiazol-2-yl]-2-pyridyl]methyl]-1,3,4-oxadiazol-2-thione] | > 50000 | 453 | 110
Fc1cc(-c2nnc(C(F)F)o2)cnc1Cn1nc(-c2ccc(CN3CCC3)s2)oc1=S [Compound 130, 5-[5-(azetidine-1-ylmethyl)-2-thienyl]-3-[[5-[5-(difluoromethyl)-1,3,4-oxadiazol-2-yl]-3-fluoro-2-pyridyl]methyl]-1,3,4-oxadiazol-2-thione] | > 50000 | 750 | 66.7
O=c1oc(-c2ccc(CN3CCC3)cc2)nn1Cc1ccc(-c2nnc(C(F)F)o2)cn1 [Compound 132, 5-[4-(azetidin-1-ylmethyl)phenyl]-3-[[5-[5-(difluoromethyl)-1,3,4-oxadiazol-2-yl]-2-pyridyl]methyl]-1,3,4-oxadiazol-2-one] | > 50000 | 484 | 103
FC(F)c1nnc(-c2ccc(Cn3nc(-c4csc(CN5CCC5)c4)oc3=S)nc2)o1 [Compound 134, 5-[5-(azetidine-1-ylmethyl)-3-thienyl]-3-[[5-[5-(difluoromethyl)-1,3,4-oxadiazol-2-yl]-2-pyridyl]methyl]-1,3,4-oxadiazol-2-thione] | > 50000 | 680 | 73.5
CN1CCc2cc(-c3nn(Cc4ncc(-c5nnc(C(F)F)o5)cc4F)c(=S)o3)ccc2C1 [Compound 135, 3-[[5-[5-(difluoromethyl)-1,3,4-oxadiazol-2-yl]-3-fluoro-2-pyridyl]methyl]-5-(2-methyl-3,4-dihydro-1H-isoquinolin-6-yl)-1,3,4-oxadiazol-2-thione] | > 50000 | 741 | 67.5
CC(C)N1CCc2cc(-c3nn(Cc4ncc(-c5nnc(C(F)F)o5)cc4F)c(=S)o3)ccc2C1 [Compound 136, 3-[[5-[5-(difluoromethyl)-1,3,4-oxadiazol-2-yl]-3-fluoro-2-pyridyl]methyl]-5-(2-isopropyl-3,4-dihydro-1H-isoquinolin-6-yl)-1,3,4-oxadiazol-2-thione] | > 50000 | 840 | 59.5
CN1CCc2cc(-c3nn(Cc4ccc(-c5nnc(C(F)F)o5)cn4)c(=S)o3)sc2C1 [Compound 139, 3-[[5-[5-(difluoromethyl)-1,3,4-oxadiazol-2-yl]-2-pyridyl]methyl]-5-(6-methyl-5,7-dihydro-4H-thieno[2,3-c]pyridin-2-yl)-1,3,4-oxadiazol-2-thione] | > 50000 | 552 | 90.6

Next, values leading:

IC50 [1] [nM] | HDAC6 selectivity (fold) [2] [fold] | IC50 [2] [nM] | Structure (SMILES)
> 50000 | 1109 | 45.1 | FC(F)c1nnc(-c2ccc(Cn3nc(-c4ccc(CN5CCC5)s4)oc3=S)nc2)o1 [Compound 123, 5-[5-(azetidine-1-ylmethyl)-2-thienyl]-3-[[5-[5-(difluoromethyl)-1,3,4-oxadiazol-2-yl]-2-pyridyl]methyl]-1,3,4-oxadiazol-2-thione]
> 50000 | 491 | 102 | FC(F)c1nnc(-c2ccc(Cn3nc(-c4ccc(CN5CC[C@@H](F)C5)s4)oc3=S)nc2)o1 [Compound 124, 3-[[5-[5-(difluoromethyl)-1,3,4-oxadiazol-2-yl]-2-pyridyl]methyl]-5-[5-[[(3R)-3-fluoropyrrolidin-1-yl]methyl]-2-thienyl]-1,3,4-oxadiazol-2-thione]
> 50000 | 563 | 88.8 | FC(F)c1nnc(-c2ccc(Cn3nc(-c4ccc(CN5CC[C@H](F)C5)s4)oc3=S)nc2)o1 [Compound 125, 3-[[5-[5-(difluoromethyl)-1,3,4-oxadiazol-2-yl]-2-pyridyl]methyl]-5-[5-[[(3S)-3-fluoropyrrolidin-1-yl]methyl]-2-thienyl]-1,3,4-oxadiazol-2-thione]
> 50000 | 977 | 51.2 | CN1CCN(c2nccc(-c3nn(Cc4ccc(-c5nnc(C(F)F)o5)cn4)c(=S)o3)n2)CC1 [Compound 126, 3-[[5-[5-(difluoromethyl)-1,3,4-oxadiazol-2-yl]-2-pyridyl]methyl]-5-[2-(4-methylpiperazin-1-yl)pyrimidin-4-yl]-1,3,4-oxadiazol-2-thione]
> 50000 | 879 | 56.9 | CC(C)N1CCN(c2nccc(-c3nn(Cc4ccc(-c5nnc(C(F)F)o5)cn4)c(=S)o3)n2)CC1 [Compound 127, 3-[[5-[5-(difluoromethyl)-1,3,4-oxadiazol-2-yl]-2-pyridyl]methyl]-5-[2-(4-isopropylpiperazin-1-yl)pyrimidin-4-yl]-1,3,4-oxadiazol-2-thione]
> 50000 | 583 | 85.7 | CN(C)Cc1ccc(-c2nn(Cc3ncc(-c4nnc(C(F)F)o4)cc3F)c(=S)o2)s1 [Compound 128, 3-[[5-[5-(difluoromethyl)-1,3,4-oxadiazol-2-yl]-3-fluoro-2-pyridyl]methyl]-5-[5-[(dimethylamino)methyl]-2-thienyl]-1,3,4-oxadiazol-2-thione]
> 50000 | 457 | 109 | CCN(CC)Cc1ccc(-c2nn(Cc3ncc(-c4nnc(C(F)F)o4)cc3F)c(=S)o2)s1 [Compound 129, 5-[5-(diethylaminomethyl)-2-thienyl]-3-[[5-[5-(difluoromethyl)-1,3,4-oxadiazol-2-yl]-3-fluoro-2-pyridyl]methyl]-1,3,4-oxadiazol-2-thione]
> 50000 | 612 | 81.7 | CN(C)Cc1cc(-c2nn(Cc3ccc(-c4nnc(C(F)F)o4)cn3)c(=S)o2)cs1 [Compound 131, 3-[[5-[5-(difluoromethyl)-1,3,4-oxadiazol-2-yl]-2-pyridyl]methyl]-5-[5-[(dimethylamino)methyl]-3-thienyl]-1,3,4-oxadiazol-2-thione]
> 50000 | 442 | 113 | O=c1oc(-c2ccc(CN3CCCCC3)cc2)nn1Cc1ccc(-c2nnc(C(F)F)o2)cn1 [Compound 133, 3-[[5-[5-(difluoromethyl)-1,3,4-oxadiazol-2-yl]-2-pyridyl]methyl]-5-[4-(1-piperidylmethyl)phenyl]-1,3,4-oxadiazol-2-one]
> 50000 | 1075 | 46.5 | Fc1cc(-c2nnc(C(F)F)o2)cnc1Cn1nc(-c2ccc3c(c2)CCN(C2CCC2)C3)oc1=S [Compound 137, 5-(2-cyclobutyl-3,4-dihydro-1H-isoquinolin-6-yl)-3-[[5-[5-(difluoromethyl)-1,3,4-oxadiazol-2-yl]-3-fluoro-2-pyridyl]methyl]-1,3,4-oxadiazol-2-thione]
> 50000 | 1042 | 48.7 | Fc1cc(-c2nnc(C(F)F)o2)cnc1Cn1nc(-c2ccc3c(c2)CCN(C2CCCCC2)C3)oc1=S [Compound 138, 5-(2-cyclohexyl-3,4-dihydro-1H-isoquinolin-6-yl)-3-[[5-[5-(difluoromethyl)-1,3,4-oxadiazol-2-yl]-3-fluoro-2-pyridyl]methyl]-1,3,4-oxadiazol-2-thione]
